The values below come from PMC10684410 (Clinical Pharmacokinetics, 2023).

Bounds are passed on as bounds.

Data set [1] is described as follows: Plasma paroxetine concentrations in the DDI study. Type of data set: in vivo, human (healthy subjects).
Another data set concerns TAAR1. As to conditions: in vitro receptor binding studies; result in words; cited from earlier work.
For data set [2] the following is noted: cited from earlier work.
Setting [3] is: 25 mg ulotaront + 20 mg QD paroxetine vs ulotaront alone, result in words.

Regarding `Fc1ccc([C@@H]2CCNC[C@H]2COc2ccc3c(c2)OCO3)cc1` [Paroxetine], in data set [1] (human, plasma, oral, 20 mg), the AUC amounted to 647 ng·h/mL and the Cmax amounted to 37.3 ng/mL. Further, the “mean plasma trough concentration at steady-state” value in data set [1] (paroxetine 20 mg once daily from Day 5, Day 11) stood at 19.3 ng/mL.
For the molecule `NCC1OCCc2ccsc21` (centres unmarked) [SEP-363854], the “binding to TAAR1” value in the data set on TAAR1 is recorded as “does bind to TAAR1”. For the same molecule, under “25 mg ulotaront + 20 mg QD paroxetine vs ulotaront alone”, the “increase of SEP-363854 AUC∞ by coadministration of paroxetine” value is 32%. In addition, under setting [3], the “effect of paroxetine on SEP-363854 Cmax” value is given as “no effect”, the “effect of paroxetine on SEP-363854 tmax” value is reported as “no effect” and the “effect of paroxetine on SEP-363854 to ulotaront AUClast ratio” value is “no effect”. The “mean SEP-363854 to ulotaront AUClast ratio” value (with or without paroxetine coadministration) was “about 0.02”. Further, in data set [2] (minor metabolite in humans), the “metabolite abundance in humans” value was < 2 % of total. Further, in data set [2] (ref unpublished data), the “effective half-life for the metabolite” value is “approximately 6 h”.
